system: AMPK; assay: AMPK activation assay (enzyme-linked immunosorbent assay); type: cell-based
Protocol: Compounds were assayed for their ability to activate AMPK using an enzyme-linked immunosorbent assay. Reagents and procedures for measuring AMPK activation are well known and kits for AMPK activation assays are commercially available.

`CC(c1ccccc1)N1CCC(NC(=O)c2ccc(C(=O)N3CCN(Cc4ccc(F)cc4)CC3)cn2)CC1` (stereo not shown) [Compound 18, 5-(4-(4-fluorobenzyl)piperazine-1-carbonyl)-N-(1-(1-phenylethyl)piperidin-4-yl)picolinamide] and `O=C(NC1CCN(Cc2ccc(Cl)cc2)CC1)c1ccc(C(=O)N2CCN(Cc3ccc(F)cc3)CC2)cn1` [Compound 52] cannot be ordered by EC50: < 500 nM for the first, < 500 nM for the second.

`O=C(Nc1cccc(Oc2ccccc2)c1)c1ccc(C(=O)N2CCN(Cc3ccc(F)cc3)CC2)cn1` [Compound 21, 5-(4-(4-fluorobenzyl)piperazine-1-carbonyl)-N-(3-phenoxyphenyl)picolinamide] and `O=C(Nc1ccc(Oc2cccc(F)c2)cc1)c1ccc(C(=O)N2CCN(Cc3ccc(F)cc3)CC2)cn1` [Compound 55, 5-(4-(4-fluorobenzyl)piperazine-1-carbonyl)-N-(4-(3-fluorophenoxy)phenyl)picolinamide] cannot be ordered by EC50: < 500 nM for the first, < 500 nM for the second.

First: O=C(c1ccc(-c2cccc(OCc3ccccc3)c2)nc1)N1CCN(Cc2ccc(F)cc2)CC1 [Compound 22, (6-(3-(benzyloxy)phenyl)pyridin-3-yl)(4-(4-fluorobenzyl)piperazin-1-yl)methanone]
Second: O=C(Nc1ccc(OCc2ccccc2)cc1)c1ccc(C(=O)N2CCN(Cc3ccc(F)cc3)CC2)cn1 [Compound 27, N-(4-benzyloxyphenyl)-5-(4-(4-fluorobenzyl)piperazine-1-carbonyl)picolinamide]
The EC50 of the first is lower: < 500 nM for the first, 500 to 1000 nM for the second.

`N#Cc1ccc(Cn2cc(NC(=O)c3ccc(C(=O)N4CCN(Cc5ccc(F)cc5)CC4)cn3)cn2)cc1` [Compound 23, N-(1-(4-cyanobenzyl)-1H-pyrazol-4-yl)-5-(4-(4-fluorobenzyl)piperazine-1-carbonyl)picolinamide] and `N#Cc1ccc(CNC(=O)c2ccc(NC(=O)c3ccc(C(=O)N4CCN(Cc5ccc(F)cc5)CC4)cn3)cc2)cc1` [Compound 47, N-(4-(4-cyanobenzylcarbamoyl)phenyl)-5-(4-(4-fluorobenzyl)piperazine-1-carbonyl)picolinamide] cannot be ordered by EC50: < 500 nM for the first, < 500 nM for the second.

First: N#Cc1ccc(-c2ccc(NC(=O)c3ccc(C(=O)N4CCN(Cc5ccc(F)cc5)CC4)cn3)cc2)cc1 [Compound 24, N-(4-(4-cyanophenyl)phenyl)-5-(4-(4-fluorobenzyl)piperazine-1-carbonyl)picolinamide]
Second: N#Cc1cccc(-c2ccc(NC(=O)c3ccc(C(=O)N4CCN(Cc5ccc(F)cc5)CC4)cn3)cc2)c1 [Compound 32, N-(4-(3-cyanophenyl)phenyl)-5-(4-(4-fluorobenzyl)piperazine-1-carbonyl)picolinamide]
The EC50 of the first is lower: < 500 nM for the first, 500 to 1000 nM for the second.

Compared with `O=C(Nc1ccc(-c2ccc(C(F)(F)F)cc2)cc1)c1ccc(C(=O)N2CCN(Cc3ccc(F)cc3)CC2)cn1` [Compound 25, 5-(4-(4-fluorobenzyl)piperazine-1-carbonyl)-N-(4-(4-trifluoromethylphenyl)phenyl)picolinamide], `COc1ccc(-c2ccc(NC(=O)c3ccc(C(=O)N4CCN(Cc5ccc(F)cc5)CC4)cn3)cc2)cc1` [Compound 29, N-(4-(4-methoxyphenyl)phenyl)-5-(4-(4-fluorobenzyl)piperazine-1-carbonyl)picolinamide] is higher in EC50: < 500 nM for the first, 500 to 1000 nM for the second.

`O=C(c1ccccc1)c1ccc(NC(=O)c2ccc(C(=O)N3CCN(Cc4ccc(F)cc4)CC3)cn2)cc1` [Compound 26, N-(4-benzoylphenyl)-5-(4-(4-fluorobenzyl)piperazine-1-carbonyl)picolinamide] and `O=C(Nc1ccc(-c2cccnc2)cc1)c1ccc(C(=O)N2CCN(Cc3ccc(F)cc3)CC2)cn1` [Compound 61, 5-(4-(4-fluorobenzyl)piperazine-1-carbonyl)-N-(4-(pyridine-3-yl)phenyl)picolinamide] cannot be ordered by EC50: < 500 nM for the first, < 500 nM for the second.

Compared with `O=C(Nc1ccc(Br)cc1)c1ccc(C(=O)N2CCN(Cc3ccc(F)cc3)CC2)cn1` [Compound 28, N-(4-bromophenyl)-5-(4-(4-fluorobenzyl)piperazine-1-carbonyl)picolinamide], `O=C(Nc1ccc(-c2cc[nH]c2)cc1)c1ccc(C(=O)N2CCN(Cc3ccc(F)cc3)CC2)cn1` [Compound 39, 5-(4-(4-fluorobenzyl)piperazine-1-carbonyl)-N-(4-(1H-pyrrol-3-yl)phenyl)picolinamide] is higher in EC50: 500 to 1000 nM for the first, 1000 to 5000 nM for the second. The first is the more potent here.

Compared with `O=C(c1ccc(Nc2ccc(Cc3ccccc3)cc2)nc1)N1CCN(Cc2ccc(F)cc2)CC1` [Compound 30], `O=C(c1ccc(Nc2ccc(-c3ccccc3)cc2)nc1)N1CCN(Cc2ccc(F)cc2)CC1` [Compound 37, (6-(4-phenylphenylamino)pyridin-3-yl)(4-(4-fluorobenzyl)piperazin-1-yl)methanone] is higher in EC50: 1000 to 5000 nM for the first, 5000 to 10000 nM for the second.

First: N#Cc1ccc(CN2CCC3(CC2)CCN(c2ccc(C(=O)N4CCN(Cc5ccc(F)cc5)CC4)cn2)C3)cc1 [Compound 31, 4-((2-(5-(4-(4-fluorobenzyl)piperazine-1-carbonyl)pyridin-2-yl)-2,8-diazaspiro[4.5]decan-8-yl)methyl)benzonitrile]
Second: N#Cc1ccc(CN2CCC(Nc3ccc(C(=O)N4CCN(Cc5ccc(F)cc5)CC4)cn3)CC2)cc1 [Compound 36, (6-(4-(cyanobenzyl)piperidin-4-ylamino)pyridin-3-yl)(4-(4-fluorobenzyl)piperazin-1-yl)methanone]
The EC50 of the first is lower: < 500 nM for the first, 500 to 1000 nM for the second. The first is the more potent here.

Compared with `O=C(c1ccc(Nc2cccc(-c3ccccc3)c2)nc1)N1CCN(Cc2ccc(F)cc2)CC1` [Compound 33, (6-(3-phenylphenylamino)pyridin-3-yl)(4-(4-fluorobenzyl)piperazin-1-yl)methanone], `O=C(c1ccc(Nc2ccc(Oc3ccccc3)cc2)nc1)N1CCN(Cc2ccc(F)cc2)CC1` [Compound 34, (4-(4-fluorobenzyl)piperazin-1-yl)(6-(4-phenoxyphenylamino)pyridin-3-yl)methanone] is lower in EC50: 5000 to 10000 nM for the first, 1000 to 5000 nM for the second. The second is the more potent here.

First: N#Cc1ccc(CNC(=O)c2ccc(-c3ccc(C(=O)N4CCN(Cc5ccc(F)cc5)CC4)cn3)cc2)cc1 [Compound 35, (6-(4-(4-cyanobenzylcarbamoyl)phenyl)pyridin-3-yl)(4-(4-fluorobenzyl)piperazin-1-yl)methanone]
Second: N#Cc1ccc(CNC(=O)c2cccc(-c3ccc(C(=O)N4CCN(Cc5ccc(F)cc5)CC4)cn3)c2)cc1 [Compound 42, (6-(3-(4-cyanobenzylcarbamoyl)phenyl)pyridin-3yl)(4-(4-fluorobenzyl)piperazin-1-yl)methanone]
The EC50 of the first is lower: 500 to 1000 nM for the first, 1000 to 5000 nM for the second.

First: N#Cc1ccc(CN2CCC(NC(=O)c3ccc(C(=O)Nc4ccn(Cc5ccc(C#N)cc5)n4)cn3)CC2)cc1 [Compound 38, N^5-(1-(4-cyanobenzyl)-1H-pyrazol-3-yl)-N^2-(1-(4-cyanobenzyl)piperidin-4-yl)pyridine-2,5-dicarboxamide]
Second: N#Cc1ccc(CN2CCC(NC(=O)c3ccc(C(=O)Nc4cnn(Cc5ccc(C#N)cc5)c4)cn3)CC2)cc1 [Compound 43, N^5-(1-(4-cyanobenzyl)-1H-pyrazol-4-yl)-N^2-(1-(4-cyanobenzyl)piperidin-4-yl)pyridine-2,5-dicarboxamide]
The EC50 of the first is lower: 500 to 1000 nM for the first, 1000 to 5000 nM for the second. The first is the more potent here.

Compared with `O=C(Nc1ccc(N2CCOCC2)cc1)c1ccc(C(=O)N2CCN(Cc3ccc(F)cc3)CC2)cn1` [Compound 40, 5-(4-(4-fluorobenzyl)piperazine-1-carbonyl)-N-(4-morpholinophenyl)picolinamide], `CN1CCN(c2ccc(NC(=O)c3ccc(C(=O)N4CCN(Cc5ccc(F)cc5)CC4)cn3)cc2)CC1` [Compound 41, 5-(4-(4-fluorobenzyl)piperazine-1-carbonyl)-N-(4-(4-methylpiperazin-1-yl)phenyl)picolinamide] is higher in EC50: 1000 to 5000 nM for the first, > 10000 nM for the second. The first is the more potent here.

`O=C(NC1CCN(Cc2cc(F)cc(F)c2)CC1)c1ccc(C(=O)N2CCN(Cc3ccc(F)cc3)CC2)cn1` [Compound 49, N-(1-(3,5-difluorobenzyl)piperidin-4-yl)-5-(4-(4-fluorobenzyl)piperazine-1-carbonyl)picolinamide] and `Cc1cc(CN2CCC(NC(=O)c3ccc(C(=O)N4CCN(Cc5ccc(F)cc5)CC4)cn3)CC2)ccc1F` [Compound 50, 5-(4-(4-fluorobenzyl)piperazine-1-carbonyl)-N-(1-(4-fluoro-3-methylbenzyl)piperidin-4-yl)picolinamide] cannot be ordered by EC50: < 500 nM for the first, < 500 nM for the second.

`Cc1ccc(Oc2ccc(NC(=O)c3ccc(C(=O)N4CCN(Cc5ccc(F)cc5)CC4)cn3)cc2)cc1` [Compound 53, 5-(4-(4-fluorobenzyl)piperazine-1-carbonyl)-N-(4-(4-methylphenoxy)phenyl)picolinamide] and `O=C(Nc1ccc(Oc2ccc(F)cc2)cc1)c1ccc(C(=O)N2CCN(Cc3ccc(F)cc3)CC2)cn1` [Compound 60, 5-(4-(4-fluorobenzyl)piperazine-1-carbonyl)-N-(4-(4-fluorophenoxy)phenyl)picolinamide] cannot be ordered by EC50: < 500 nM for the first, < 500 nM for the second.

`COc1ccc(Oc2ccc(NC(=O)c3ccc(C(=O)N4CCN(Cc5ccc(F)cc5)CC4)cn3)cc2)cc1` [Compound 54, 5-(4-(4-fluorobenzyl)piperazine-1-carbonyl)-N-(4-(4-methoxyphenoxy)phenyl)picolinamide] and `COc1cccc(Oc2ccc(NC(=O)c3ccc(C(=O)N4CCN(Cc5ccc(F)cc5)CC4)cn3)cc2)c1` [Compound 57, 5-(4-(4-fluorobenzyl)piperazine-1-carbonyl)-N-(4-(3-methoxyphenoxy)phenyl)picolinamide] cannot be ordered by EC50: < 500 nM for the first, < 500 nM for the second.

`N#Cc1cccc(Oc2ccc(NC(=O)c3ccc(C(=O)N4CCN(Cc5ccc(F)cc5)CC4)cn3)cc2)c1` [Compound 56, N-(4-(3-cyanophenoxy)phenyl)-5-(4-(4-fluorobenzyl)piperazine-1-carbonyl)picolinamide] and `Cc1cccc(Oc2ccc(NC(=O)c3ccc(C(=O)N4CCN(Cc5ccc(F)cc5)CC4)cn3)cc2)c1` [Compound 58, 5-(4-(4-fluorobenzyl)piperazine-1-carbonyl)-N-(4-(3-methylphenoxy)phenyl)picolinamide] cannot be ordered by EC50: < 500 nM for the first, < 500 nM for the second.

`N#Cc1ccc(Oc2ccc(NC(=O)c3ccc(C(=O)N4CCN(Cc5ccc(F)cc5)CC4)cn3)cc2)cc1` [Compound 59, N-(4-(4-cyanophenoxy)phenyl)-5-(4-(4-fluorobenzyl)piperazine-1-carbonyl)picolinamide] was tested, and the EC50 was < 500 nM.

Reference: patent publication US20150087673A1, “METHODS FOR USING AND BIOMARKERS FOR AMPK-ACTIVATING COMPOUNDS” (RIGEL PHARMACEUTICALS, INC., priority 2013, published 2015)
